Reference: patent publication US9556113B2, “Combination uses of dichloroacetate and oxamate, and their prodrugs, for cancer treatment” (The South Dakota Board of Regents, priority 2014, dated 2017)

Key:
[1] = Chemical stability (hydrolysis) in aqueous acetonitrile, HPLC; format: physicochemical; conditions: water:acetonitrile 1:1, ambient temperature, in 4 hours, 0.4 mg/mL
Description: FIG. 15 provides a graph of the hydrolysis of prodrug 1 (FIG. 15A) and prodrug 2 (FIG. 15B) in aqueous acetonitrile solution. Prodrug 1 or prodrug 2 (0.42 mg/mL) in aqueous acetonitrile (H2O:CH3CN=1:1) was stirred at ambient temperature. Aliquots were withdrawn and analyzed for the prodrug by HPLC as described in the experimental section.
Once the two prodrugs were obtained, their chemical stability and metabolic stability were determined. The chemical stability of prodrug 1 and prodrug 2 was determined in aqueous acetonitrile at ambient temperature. The prodrug (0.4 mg/mL) a mixture of water and acetonitrile (1:1) at ambient temperature. Aliquots were taken from the solution periodically and checked by HPLC for the presence of the prodrug. The HPLC analysis was carried out on a Beckman Coulter HPLC (System Gold) system, controlled by a system controller (32 Karat workstation with PC), equipped with a 125 gradient pumping module, a 508 autosampler with a sample cooling system, and a 168 photodiode array detector. The HPLC conditions employed an Apollo C18 column (250 mm×4.6 mm i.d., 5 μm) (Alltech, Deerfield, Ill.) and aqueous acetonitrile (50% with 0.1% TFA) as the mobile phase. The flow rate was 0.8 mL/min and the detection wavelength was 210 nm. Under the condition, the retention time for prodrugs 1 and 2 was 9.83 and 9.87 minutes respectively. […]

[2] = system: E6E7/Ras MTE cells; assay: Clonogenic growth (colony formation); format: cell-based, mouse; conditions: 7 days; for number of colonies compared to DCA treated cultures (FIG. 4C): 5 mM prodrug vs 10 mM DCA; for colony size (FIG. 4B): 5 mM prodrugs, 10 mM DCA, vs DMSO
Description: (§1) FIG. 4 illustrates prodrugs AT-N4-001 and AT-N4-002 inhibiting cell proliferation and colony growth of E6E7/Ras MTE cells. (A) E6E7/Ras MTE cultures were treated with DMSO (Con), AT-N4-001, or AT-N4-[…] 002 at the indicated concentration for one day. Live cell number was then determined using a trypan blue exclusion assay. (B) E6E7/Ras MTE cells were seeded on 100-mm plate at 500 cells per plate (in triplicate). After one day, cells were treated as indicated and allowed to grow until colonies of untreated controls reached 50 or more cells (7 days). Plates were stained with Coomassie blue to visualize the colonies. (C) Quantification of colonies described in B. Colonies with more than 15 cells were counted.
(§2) E6E7/Ras MTE cells are mouse tonsilar epithelial cells that have been transformed by HPV oncogenes E6 and E7 together with activated ras. They form tumors in mice and are a model of human HPV+HNSCC. These cells were treated in culture with either vehicle control (DMSO), AT-N4-001, or AT-N4-002 at concentrations of 1 mM, 2.5 mM and 5 mM for one day. Live cells were counted using a hemocytometer (FIG. 4A). […] The effects of the compounds on clonogenic growth of the cells were also tested. E6/E7/Ras MTE cells were seeded in 100 mm plates in triplicate, and the next day cells were treated with either vehicle control DMSO, 5 mM AT-N4-001, 5 mM AT-N4-002, or 10 mM DCA. DCA was used at a twice the concentration because the prodrugs each carry two molecules of DCA.

[3] = system: E6E7/Ras cells; assay: Lactate secretion into culture medium, enzyme based assay; format: cell-based, mouse; conditions: 5 mM each, 4 hours
Description: FIG. 5 illustrates the reduction of lactate secretion in cultured cells by prodrugs AT-N4-001 and AT-N4-002. E6E7Ras cells were plated in 100 mm dishes and grown to confluence. The medium was changed to bicarbonate-free DMEM-10% FBS with or without the indicated treatments (5 mM each). Four hours later the medium was collected and lactate was measured using an enzyme based assay from Eton Bioscience. Con indicates the control samples for the DCA and Oxamate samples. DMSO indicates the vehicle only control for the AT-N4-001 and AT-N4-002 prodrug samples.
AT-N4-001 and AT-N4-002 should each release two molecules of DCA and one molecule of oxamate. Both DCA and oxamate are expected to reduce cellular lactate production. Therefore, we examined the changes in lactate after treatment of E6E7/Ras cells with the prodrugs. E6E7/Ras cells were seeded into 100 mm dishes and the next day treated with 5 mM AT-N4-001, 5 mM AT-N4-002, 5 mM DCA plus 5 mM oxamate, or 5 mM DCA alone. Culture medium was collected after 4 hours of treatment and lactate levels were determined (FIG. 5). […] To confirm the effects of these compounds on lactate production, the extra cellular acidification rate (ECAR) was measured using a Seahorse XF24 Extracellular Flux analyzer. Since lactate is transported from cells together with a proton, acidification of the culture medium (ECAR) is an estimate of lactate production and the glycolytic rate of cells. In the experiment shown in FIG. 6A, ECAR measurements were initiated in the absence of glucose. At point A, glucose was added and ECAR measurements continued. […] At point B, additional glucose along with vehicle (control), DCA plus oxamate, or AT-N4-002 was added. […] This is shown by a bar graph in FIG. 6B.

[4] = system: E6E7/Ras MTE cells; assay: Live cell number, trypan blue exclusion assay; format: cell-based, mouse; conditions: 1 mM, 2.5 mM and 5 mM, one day, vs DMSO
Description: as §1
as §2, with “DCA was used at a twice the concentration because the prodrugs each carry two molecules of DCA.” left out

Compound	hydrolysis of prodrug [1]	number of colonies compared to DCA treated cultures (FIG. 4C) [2]	colony size (FIG. 4B) [2]	lactate production (culture medium, FIG. 5) [3]	live cell number (FIG. 4A) [4]
NC(=O)C(=O)OC(COC(=O)C(Cl)Cl)COC(=O)C(Cl)Cl [AT-N4-001, 2-(2-Amino-2-oxoacetoxy)propane-1,3-diyl bis(2,2-dichloroacetate)]	about 10%	significantly lower	approximately equal reductions in colony size	significantly reduce lactate production	significant reductions in live cell number
NC(=O)C(=O)OCC(COC(=O)C(Cl)Cl)OC(=O)C(Cl)Cl (stereo not shown) [AT-N4-002, 3-(2-amino-2-oxoacetoxy)propane-1,2-diyl bis(2,2-dichloroacetate)]	about 10%	significantly lower	approximately equal reductions in colony size	significantly reduce lactate production	significant reductions in live cell number
